Results published in patent publication US20080051387A1, “TETRAHYDROPYRIDO[3,4-D]PYRIMIDINES AND RELATED ANALOGUES” (priority 2006, published 2008).

Biological target: T1, chimeric human H3 receptor (Homo sapiens, UniProt Q9Y5N1)
T1 construct: rat Galpha-i2 (Gnai2, rat); made in house; host or cells: Sf9 insect cells (baculovirus); P2 membranes
Assay: Chimeric human H3 receptor screening GTP binding assay (inhibition of histamine-stimulated GTP-gamma35S binding, Example 8)
Assay type: biochemical
Conditions: symbol ! in Ki; test compound 4 μM, 1 μM histamine; read-out: percent inhibition of agonist-induced GTP-gammaS binding to H3
Protocol: This Example illustrates a representative screening assay for evaluating inhibition of histamine-stimulated GTP-gamma^35S binding. Such GTP binding activity can be used to identify H3 antagonists and inverse agonists. A compound analyzed in this assay is referred to herein as a “test compound,” and the initial identification of antagonists and inverse agonists is performed using a test compound concentration of 4 μM.
Four independent baculoviral stocks (one directing the expression of the chimeric human H3 receptor and three directing the expression of each of the three subunits of a heterotrimeric G-protein) are used to infect a culture of Sƒ9 cells as described above. P2 membranes are prepared as described above, and are resuspended by Dounce homogenization (tight pestle) in GTP binding assay buffer (50 mM Tris pH 7.4, 120 mM NaCl, 5 mM MgCl2, 2 mM EGTA, 1 mg/ml BSA, 0.2 mg/ml bacitracin, 0.02 mg/ml aprotinin, 0.01 mg/ml saponin, 10 μM GDP) and added to assay tubes at a concentration of 35 μg protein/reaction tube. Non-radiolabeled test compounds are added to separate reactions at a concentration of 4 μM along with 1 μM histamine (agonist). Reactions are initiated by the addition of 125 pM GTP-gamma^35S with a final assay volume of 0.20 ml.
After a 60-min incubation at room temperature, reactions are terminated by vacuum filtration over GF/C filters (pre-soaked in 50 mM Tris pH 7.4, 120 mM NaCl plus 0.1% BSA) followed by washing with ice-cold buffer (50 mM Tris pH 7.4, 120 mM NaCl). The amount of receptor-bound (and thereby membrane-bound) GTP-gamma^35S is determined by measuring the bound radioactivity, preferably by liquid scintillation spectrometry of the washed filters. Non-specific binding is determined using 10 uM GTP-gammaS and typically represents less than 5 percent of total binding. After subtraction of non-specific binding, data is expressed as percent inhibition of 1 μM histamine signal.
Neutral antagonists are those test compounds that reduce the histamine-stimulated GTP binding activity towards, but not below, baseline levels. In contrast, in the absence of added histamine, inverse agonists reduce the GTP binding activity of the receptor-containing membranes below baseline. Any test compound that elevates GTP binding activity above baseline in the absence of added histamine in this assay is defined as having agonist activity.

T1 sequence (Q9Y5N1 with tags, fused parts or gaps): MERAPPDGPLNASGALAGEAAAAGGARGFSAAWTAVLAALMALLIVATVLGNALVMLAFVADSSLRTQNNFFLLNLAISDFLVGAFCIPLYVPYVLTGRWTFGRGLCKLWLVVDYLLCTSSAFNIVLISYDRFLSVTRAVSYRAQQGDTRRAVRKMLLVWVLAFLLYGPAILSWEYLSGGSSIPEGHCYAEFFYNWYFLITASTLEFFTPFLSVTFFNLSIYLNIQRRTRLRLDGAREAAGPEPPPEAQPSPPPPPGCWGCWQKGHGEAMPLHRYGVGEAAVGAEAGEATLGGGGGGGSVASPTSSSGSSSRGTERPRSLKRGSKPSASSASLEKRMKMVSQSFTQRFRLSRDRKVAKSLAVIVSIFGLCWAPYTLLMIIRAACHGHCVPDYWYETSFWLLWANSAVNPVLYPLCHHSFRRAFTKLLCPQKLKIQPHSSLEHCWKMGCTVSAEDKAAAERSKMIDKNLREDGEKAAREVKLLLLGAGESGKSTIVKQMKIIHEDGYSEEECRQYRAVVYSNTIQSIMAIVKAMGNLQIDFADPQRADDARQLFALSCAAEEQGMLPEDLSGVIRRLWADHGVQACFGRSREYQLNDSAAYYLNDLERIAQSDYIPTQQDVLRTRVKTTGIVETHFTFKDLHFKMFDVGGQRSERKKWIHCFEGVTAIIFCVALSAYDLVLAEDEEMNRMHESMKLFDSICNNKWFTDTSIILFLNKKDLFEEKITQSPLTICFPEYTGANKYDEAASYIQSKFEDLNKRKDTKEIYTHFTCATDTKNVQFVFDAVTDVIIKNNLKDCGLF

Row | SMILES | inhibition at 4 µM
1 | c1ccc2c(CN3CCc4c(ncnc4N4CCN(C5CCC5)CC4)C3)ccnc2c1 [Compound 72, 4-(4-cyclobutylpiperazin-1-yl)-7-(quinolin-4-ylmethyl)-5,6,7,8-tetrahydropyrido[3,4-d]pyrimidine] | ≥ 90%
2 | c1ccc2ncc(CN3CCc4c(ncnc4N4CCN(C5CCC5)CC4)C3)cc2c1 [Compound 73, 4-(4-cyclobutylpiperazin-1-yl)-7-(quinolin-3-ylmethyl)-5,6,7,8-tetrahydropyrido[3,4-d]pyrimidine] | ≥ 90%
3 | Cc1cccc(CN2CCc3c(ncnc3N3CCN(C4CCC4)CC3)C2)n1 [Compound 74, 4-(4-cyclobutylpiperazin-1-yl)-7-[(6-methylpyridin-2-yl)methyl]-5,6,7,8-tetrahydropyrido[3,4-d]pyrimidine] | ≥ 90%
4 | c1cncc(CN2CCc3c(ncnc3N3CCN(C4CCC4)CC3)C2)c1 [Compound 75, 4-(4-cyclobutylpiperazin-1-yl)-7-(pyridin-3-ylmethyl)-5,6,7,8-tetrahydropyrido[3,4-d]pyrimidine] | ≥ 90%
5 | c1nc2c(c(N3CCN(C4CCC4)CC3)n1)CCN(Cc1ccc(N3CCOCC3)nc1)C2 [Compound 76, 4-(4-cyclobutylpiperazin-1-yl)-7-[(6-morpholin-4-ylpyridin-3-yl)methyl]-5,6,7,8-tetrahydropyrido[3,4-d]pyrimidine] | ≥ 90%
6 | Cc1cc(CN2CCc3c(ncnc3N3CCN(C4CCC4)CC3)C2)n(C)n1 [Compound 77] | ≥ 90%
7 | COc1ccccc1CN1CCc2c(ncnc2N2CCN(C3CCC3)CC2)C1 [Compound 78, 4-(4-cyclobutylpiperazin-1-yl)-7-(2-methoxybenzyl)-5,6,7,8-tetrahydropyrido[3,4-d]pyrimidine] | ≥ 90%
8 | COc1ccc(CN2CCc3c(ncnc3N3CCN(C4CCC4)CC3)C2)c(OC)c1 [Compound 79, 4-(4-cyclobutylpiperazin-1-dimethoxybenzyl)-5,6,7,8-tetrahydropyrido[3,4-d]pyrimidine] | ≥ 90%
9 | CC(C)c1ccc(CN2CCc3c(ncnc3N3CCN(C4CCC4)CC3)C2)cc1 [Compound 80] | ≥ 90%
10 | CCN1CCc2c(ncnc2N2CCN(C3CCC3)CC2)C1 [Compound 81, 4-(4-cyclobutylpiperazin-1-yl)-7-ethyl-5,6,7,8-tetrahydropyrido[3,4-d]pyrimidine] | ≥ 90%
11 | CC(C)CCN1CCc2c(ncnc2N2CCN(C3CCC3)CC2)C1 [Compound 82, 4-(4-cyclobutylpiperazin-1-yl)-7-(3-methylbutyl)-5,6,7,8-tetrahydropyrido[3,4-d]pyrimidine] | ≥ 90%
12 | CCCCN1CCc2c(ncnc2N2CCN(C3CCC3)CC2)C1 [Compound 83, 7-butyl-4-(4-cyclobutylpiperazin-1-yl)-5,6,7,8-tetrahydropyrido[3,4-d]pyrimidine] | ≥ 90%
13 | CCCCCN1CCc2c(ncnc2N2CCN(C3CCC3)CC2)C1 [Compound 84, 4-(4-cyclobutylpiperazin-1-yl)-7-pentyl-5,6,7,8-tetrahydropyrido[3,4-d]pyrimidine] | ≥ 90%
14 | CCCCCCN1CCc2c(ncnc2N2CCN(C3CCC3)CC2)C1 [Compound 85, 4-(4-cyclobutylpiperazin-1-yl)-7-hexyl-5,6,7,8-tetrahydropyrido[3,4-d]pyrimidine] | ≥ 90%
15 | CC(C)CN1CCc2c(ncnc2N2CCN(C3CCC3)CC2)C1 [Compound 86, 4-(4-cyclobutylpiperazin-1-yl)-7-isobutyl-5,6,7,8-tetrahydropyrido[3,4-d]pyrimidine] | ≥ 90%
16 | CCC(C)CN1CCc2c(ncnc2N2CCN(C3CCC3)CC2)C1 (stereo not drawn) [Compound 87, 4-(4-cyclobutylpiperazin-1-yl)-7-(2-methylbutyl)-5,6,7,8-tetrahydropyrido[3,4-d]pyrimidine] | ≥ 90%
17 | CCC(CC)CN1CCc2c(ncnc2N2CCN(C3CCC3)CC2)C1 [Compound 88, 4-(4-cyclobutylpiperazin-1-yl)-7-(2-ethylbutyl)-5,6,7,8-tetrahydropyrido[3,4-d]pyrimidine] | ≥ 90%

Results, then the compound that gave them:

Row | inhibition at 4 µM | SMILES
18 | ≥ 90% | c1nc2c(c(N3CCN(C4CCC4)CC3)n1)CCN(CC1CC1)C2 [Compound 89, 4-(4-cyclobutylpiperazin-1-yl)-7-(cyclopropylmethyl)-5,6,7,8-tetrahydropyrido[3,4-d]pyrimidine]
19 | ≥ 90% | CCCC(C)CN1CCc2c(ncnc2N2CCN(C3CCC3)CC2)C1 (stereo not drawn) [Compound 90, 4-(4-cyclobutylpiperazin-1-yl)-7-(2-methylpentyl)-5,6,7,8-tetrahydropyrido[3,4-d]pyrimidine]
20 | ≥ 90% | Cc1ccc(CN2CCc3c(ncnc3N3CCN(C4CCC4)CC3)C2)cc1C [Compound 91, 4-(4-cyclobutylpiperazin-1-yl)-7-(3,4-dimethylbenzyl)-5,6,7,8-tetrahydropyrido[3,4-d]pyrimidine]
21 | ≥ 90% | c1nc2c(c(N3CCN(C4CCC4)CC3)n1)CCN(Cc1ccc3c(c1)OCCO3)C2 [Compound 92, 4-(4-cyclobutylpiperazin-1-yl)-7-(2,3-dihydro-1,4-benzodioxin-6-ylmethyl)-5,6,7,8-tetrahydropyrido[3,4-d]pyrimidine]
22 | ≥ 90% | c1ccc2nc(CN3CCc4c(ncnc4N4CCN(C5CCC5)CC4)C3)ccc2c1 [Compound 93, 4-(4-cyclobutylpiperazin-1-yl)-7-(quinolin-2-ylmethyl)-5,6,7,8-tetrahydropyrido[3,4-d]pyrimidine]
23 | ≥ 90% | COc1cccc(CN2CCc3c(ncnc3N3CCN(C4CCC4)CC3)C2)c1OC [Compound 94, 4-(4-cyclobutylpiperazin-1-yl)-7-(2,3-dimethoxybenzyl)-5,6,7,8-tetrahydropyrido[3,4-d]pyrimidine]
24 | ≥ 90% | COc1ccc(OC)c(CN2CCc3c(ncnc3N3CCN(C4CCC4)CC3)C2)c1 [Compound 95, 4-(4-cyclobutylpiperazin-1-yl)-7-(2,5-dimethoxybenzyl)-5,6,7,8-tetrahydropyrido[3,4-d]pyrimidine]
25 | ≥ 90% | c1nc2c(c(N3CCN(C4CCC4)CC3)n1)CCN(Cc1ccc(N3CCCC3)nc1)C2 [Compound 96, 4-(4-cyclobutylpiperazin-1-yl)-7-[(6-pyrrolidin-1-ylpyridin-3-yl)methyl]-5,6,7,8-tetrahydropyrido[3,4-d]pyrimidine]
26 | ≥ 90% | Cc1c(F)cccc1CN1CCc2c(ncnc2N2CCN(C3CCC3)CC2)C1 [Compound 97, 4-(4-cyclobutylpiperazin-1-yl)-7-(3-fluoro-2-methylbenzyl)-5,6,7,8-tetrahydropyrido[3,4-d]pyrimidine]
27 | ≥ 90% | Clc1ccccc1CN1CCc2c(ncnc2N2CCN(C3CCC3)CC2)C1 [Compound 98, 7-(2-chlorobenzyl)-4-(4-cyclobutylpiperazin-1-yl)-5,6,7,8-tetrahydropyrido[3,4-d]pyrimidine]
28 | ≥ 90% | Clc1ccc(CN2CCc3c(ncnc3N3CCN(C4CCC4)CC3)C2)c(Cl)c1 [Compound 99, 4-(4-cyclobutylpiperazin-1-yl)-7-(2,4-dichlorobenzyl)-5,6,7,8-tetrahydropyrido[3,4-d]pyrimidine]
29 | ≥ 90% | c1nc2c(c(N3CCN(C4CCC4)CC3)n1)CCN(Cc1ccc(N3CCCC3)cc1)C2 [Compound 100, 4-(4-cyclobutylpiperazin-1-yl)-7-(4-pyrrolidin-1-ylbenzyl)-5,6,7,8-tetrahydropyrido[3,4-d]pyrimidine]
30 | ≥ 90% | CC(c1ccccc1)N1CCc2c(ncnc2N2CCN(C3CCC3)CC2)C1 (stereo not drawn) [Compound 101, 4-(4-cyclobutylpiperazin-1-yl)-7-(1-phenylethyl)-5,6,7,8-tetrahydropyrido[3,4-d]pyrimidine]
31 | ≥ 90% | CC(c1ccccc1F)N1CCc2c(ncnc2N2CCN(C3CCC3)CC2)C1 (stereo not drawn) [Compound 102, 4-(4-cyclobutylpiperazin-1-yl)-7-[1-(2-fluorophenyl)ethyl]-5,6,7,8-tetrahydropyrido[3,4-d]pyrimidine]
32 | ≥ 90% | CC(c1cccc(F)c1)N1CCc2c(ncnc2N2CCN(C3CCC3)CC2)C1 (stereo not drawn) [Compound 103, 4-(4-cyclobutylpiperazin-1-yl)-7-[1-(3-fluorophenyl)ethyl]-5,6,7,8-tetrahydropyrido[3,4-d]pyrimidine]
33 | ≥ 90% | CC(c1ccc(F)cc1)N1CCc2c(ncnc2N2CCN(C3CCC3)CC2)C1 (stereo not drawn) [Compound 104, 4-(4-cyclobutylpiperazin-1-yl)-7-[1-(4-fluorophenyl)ethyl]-5,6,7,8-tetrahydropyrido[3,4-d]pyrimidine]
